Measurements published in paper PMC6934184, “Selective DNA-PKcs inhibition extends the therapeutic index of localized radiotherapy and chemotherapy” (The Journal of Clinical Investigation, 2019).

Target: T1, TNK2 (ACK) (Homo sapiens, UniProt Q07912)
T1 construct: purchased Thermo Fisher Scientific (Life Technologies) SelectScreen
Assay: SelectScreen LanthaScreen
Type: binding
Details: read-out: % displacement
How it was run: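 NU5455 was profiled across the SelectScreen Broad panel of kinase activity and binding assays. Z'LYTE reactions such as CSF1R ran at apparent Km ATP, while the Adapta CAMK1 assay used ATP listed as 10. Values are given as percent.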

T1 sequence (Q07912 whole entry): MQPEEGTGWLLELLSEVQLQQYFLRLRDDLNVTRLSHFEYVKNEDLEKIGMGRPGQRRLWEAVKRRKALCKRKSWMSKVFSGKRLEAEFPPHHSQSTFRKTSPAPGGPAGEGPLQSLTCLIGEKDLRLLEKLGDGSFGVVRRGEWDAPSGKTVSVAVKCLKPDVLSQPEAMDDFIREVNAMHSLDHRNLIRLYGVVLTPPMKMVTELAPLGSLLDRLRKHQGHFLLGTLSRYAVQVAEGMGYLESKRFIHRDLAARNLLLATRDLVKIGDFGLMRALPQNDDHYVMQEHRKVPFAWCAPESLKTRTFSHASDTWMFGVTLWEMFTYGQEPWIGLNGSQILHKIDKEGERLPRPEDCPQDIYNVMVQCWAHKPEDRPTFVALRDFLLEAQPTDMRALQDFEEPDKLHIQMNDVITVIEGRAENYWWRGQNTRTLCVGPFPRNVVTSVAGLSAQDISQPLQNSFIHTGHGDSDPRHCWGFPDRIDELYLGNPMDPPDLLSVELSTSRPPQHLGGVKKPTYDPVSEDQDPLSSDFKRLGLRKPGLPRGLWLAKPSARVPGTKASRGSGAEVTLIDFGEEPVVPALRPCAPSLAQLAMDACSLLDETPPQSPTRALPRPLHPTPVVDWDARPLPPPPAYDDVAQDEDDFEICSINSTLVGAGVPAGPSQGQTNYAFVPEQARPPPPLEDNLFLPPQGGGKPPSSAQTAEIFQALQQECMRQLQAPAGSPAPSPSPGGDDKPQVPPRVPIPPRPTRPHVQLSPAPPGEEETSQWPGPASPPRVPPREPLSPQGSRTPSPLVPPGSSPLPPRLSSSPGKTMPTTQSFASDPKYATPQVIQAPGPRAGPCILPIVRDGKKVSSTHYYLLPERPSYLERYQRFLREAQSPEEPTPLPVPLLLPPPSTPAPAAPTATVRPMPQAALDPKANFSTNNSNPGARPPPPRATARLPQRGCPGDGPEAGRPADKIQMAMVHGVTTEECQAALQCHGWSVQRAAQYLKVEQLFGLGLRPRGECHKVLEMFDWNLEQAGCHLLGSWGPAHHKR

Question: With `CN(C(=O)CN1CCOCC1)c1ccc2sc3c(-c4cccc5c(=O)cc(N6CC7CCC(C6)O7)oc45)cccc3c2c1` [NU5455] as the compound, how does the inhibition at 1 µM read?
Answer: 1.8%
